Data published in patent publication US6500824B1, “Kappa (OP2) opioid receptor antagonists” (Regents of the University of Minnesota, priority 1998, dated 2002).
Marks after values point to notes of the source that are not given here.

How the values were obtained:
[1] = Neuropeptide Y-induced feeding; assay type: in vivo; settings: FIG. 7
Excerpt: (§1) The ability of a compound to decrease butorphanol-, DAMGO-, U50,488-, 24-hour deprivation-, and Neuropeptide Y-induced feeding can be determined using models known in the art. See for example, A. S. Levine et al., Brain Research, 1998, 534, 60-64; and D. C. Jewett, et al., 1998, Society for Neuroscience Abstracts, 1, Abstract #276.10, 705.

[2] = test system: μ(OP3) opioid receptor; test: Guinea pig ileal longitudinal muscle (GPI) smooth muscle assay, antagonism of morphine; assay type: cell-based; settings: agonist morphine, antagonist concentration 100 nM
Protocol: (§2) 1. Guinea Pig Ileal Longitudinal Muscle (GPI). Ilea from guinea pigs were taken approximately 10 cm from the ileocecal junction, and a strip of longitudinal muscle with the myenteric plexus attached was prepared by the method of H. B. Rang et al., Brit. J Pharmacol., 1964, 22, 356. A 1 cm portion of this strip was then mounted between two platinum electrodes placed in a 10 ml organ bath and connected to an isometric transducer, contractions were recorded on a polygraph. Contractions of the ileal strip were initiated by supramaximal rectangular pulses in all preparations (80 V of 0.5 ms duration at a frequency of 0.1 Hz). Krebs bicarbonate solution containing […] chloropheniramine maleate was the bathing solution and was continuously bubbled with 95% O2 and 5% CO2. The organ bath was maintained at 36-37° C. The longitudinal strip was allowed to equilibrate with continuous stimulation for a minimum of 90 min. Cumulative concentration-response curves were determined after drugs were added to the bath in preselected amounts and washed out with buffer after noting their maximum effects.
(§3) The standard agonists employed were [D-Ala^2, D-Leu^5]enkephalin (DADLE) (D), morphine (M) and ethylketazocine (EKC); these are selective for delta (D), mu (M) and kappa (EKC) opioid receptors, respectively. Concentration-response curves were obtained in the absence (control) and the presence of the antagonist and were determined as IC50 values. The IC50 ratio represents the IC50 in the presence of the antagonist divided by the control IC50 value in the same tissue. A concentration independent value of antagonist potency is calculated from the equation, Ke=[antagonist]/(IC50 ratio-1).

[3] = target: T1, kappa (OP2) opioid receptor (Cavia porcellus, UniProt P41144); test: Guinea pig ileal longitudinal muscle (GPI) smooth muscle assay, antagonism of ethylketazocine (EKC); assay type: cell-based
T1 construct: a strip of longitudinal muscle with the myenteric plexus attached was prepared; from tissue; host or cells: guinea pig ileal longitudinal muscle with myenteric plexus
Protocol: as §2, §3

[4] = target: T2, δ(OP1) opioid receptor (Mus musculus, UniProt P32300); test: Mouse vas deferens (MVD) smooth muscle assay, antagonism of DADLE; assay type: cell-based
T2 construct: Both vasa deferentia were dissected out of mice and mounted singly; from tissue; host or cells: mouse vas deferens
Protocol: 2. Mouse Vas Deferens (MvD). This assay was performed according to the description by G. Henderson et al., Brit. J. Pharmacol., 1972, 46,764. Both vasa deferentia were dissected out of mice and mounted singly through two platinum electrodes in a 10 ml organ bath. The bath contained Krebs bicarbonate solution that was continuously bubbled with 95% O2 and 5% CO2. The organ bath was maintained at 37° C. The tissue was attached to an isometric transducer and stimulated transmurally with rectangular pulses ([…], 1 ms duration, supramaximal voltage). Drugs were added cumulatively to the bath in preselected amounts and washed out after noting their maximum effects.
as §3

[5] = Butorphanol-induced feeding; assay type: in vivo; settings: FIG. 3
Excerpt: as §1

[6] = test system: wt μ receptor; test: Competition binding with [3H]diprenorphine, whole cell binding, COS-7 cells, wt μ; design: species or system rat; settings: wt μ
Excerpt: (§4) The effects of mutational exchange of Glu297 in the κ receptor and Lys303 in the μ receptor on the binding affinity of representative compounds of the invention were examined using techniques known in the art.

[7] = target: T3, wt μ receptor (Rattus norvegicus, UniProt P33535); test: as above; settings: [3H]diprenorphine competition; COS-7 whole cell binding; read-out: Ki ± SEM, wt μ
T3 construct: expressed in transfected cells; host or cells: COS-7 (per the earlier reading)
Excerpt: as §4

[8] = target: T4, delta opioid receptor (Mus musculus, UniProt P32300); test: Mouse tail flick assay, antagonism of DSLET (δ) by ICV antagonist; assay type: in vivo; settings: antagonist ICV 50 pmol, agonist DSLET
T4 construct: from tissue; host or cells: living mouse (ICV dosing)

[9] = target: T5, kappa opioid receptor (Cavia porcellus, UniProt P41144); test: GPI preparation, kappa antagonist potency against U-50488H; assay type: cell-based, guinea pig
T5 construct: a strip of longitudinal muscle with the myenteric plexus attached was prepared; from tissue; host or cells: guinea pig ileal longitudinal muscle with myenteric plexus
Protocol: as §2

[10] = target: T6, κ[E297K] receptor (Rattus norvegicus, UniProt P34975, E297K); test: Competition binding with [3H]diprenorphine, whole cell binding, COS-7 cells, κ[E297K]
T6 construct: expressed in transfected cells; host or cells: COS-7 (per the earlier reading)
Excerpt: as §4

[11] = U50,488-induced feeding; assay type: in vivo; settings: FIG. 5
Excerpt: as §1

[12] = target: T7, wt κ receptor (Rattus norvegicus, UniProt P34975); test: Competition binding with [3H]diprenorphine, whole cell binding, COS-7 cells, wt κ
T7 construct: expressed in transfected cells; host or cells: COS-7 (per the earlier reading)
Excerpt: as §4

[13] = target: T8, kappa opioid receptor (Mus musculus, UniProt P33534); test: Mouse abdominal stretch assay, antagonism of U-50488H antinociception by SC antagonist; assay type: in vivo; design: from tissue; host or cells: living mouse (SC dosing)
[14] = target: T9, mu opioid receptor (Mus musculus, UniProt P42866); test: Mouse tail flick assay, antagonism of morphine (μ) by ICV antagonist; assay type: in vivo; settings: antagonist ICV 50 pmol, agonist morphine
T9 construct: from tissue; host or cells: living mouse (ICV dosing)

[15] = target: T10, μ[K303E] receptor (Rattus norvegicus, UniProt P33535, K303E); test: Competition binding with [3H]diprenorphine, whole cell binding, COS-7 cells, μ[K303E]
T10 construct: expressed in transfected cells; host or cells: COS-7 (per the earlier reading)
Excerpt: as §4

[16] = DAMGO-induced feeding; assay type: in vivo; settings: FIG. 4
Excerpt: as §1

[17] = 24-hour deprivation-induced feeding; assay type: in vivo; settings: FIG. 6
Excerpt: as §1

[18] = target: T8, kappa opioid receptor; test: Mouse tail flick assay, antagonism of U-50488H (κ) by ICV antagonist; assay type: in vivo; design: from tissue; host or cells: living mouse (ICV or SC dosing)
[19] = in vitro smooth muscle Ke, relative to nor-BNI

N=C(N)Nc1ccc2[nH]c3c(c2c1)C[C@@]1(O)[C@H]2Cc4ccc(O)c5c4[C@@]1(CCN2CC1CC1)[C@H]3O5.O.O.O=C(O)C(F)(F)F.O=C(O)C(F)(F)F [Compound 15, 5′-Guanidinyl-17-cyclopropylmethyl-6,7-didehydro-4,5-α-epoxy-3.14-dihydroxyindolo[2′,3′:6,7]morphinan Ditrifluoroacetate Dihydrate]
effect on Neuropeptide Y-induced feeding [1]: does not decreases
Antagonist Potency Ke μ(OP3) Morphine [2]: 30.00 nM
Antagonist Potency Ke κ(OP2) EKC ([3]; GPI, agonist EKC, antagonist concentration 20 nM (*)): 0.144* nM
selectivity ratio κ/δ, fold greater than that of nor-BNI [3, 19]: 42 fold
selectivity ratio κ/μ, fold greater than that of nor-BNI [3, 19]: 9 fold
kappa opioid receptor selectivity (in words) ([3]; in vitro, versus morphine and DADLE antagonism, Ditrifluoroacetate Dihydrate): potent and highly selective
Antagonist Potency Ke δ(OP1) DADLE ([4]; agonist DADLE, antagonist concentration 100 nM): 115 nM
delta antagonist activity of NTI associated with the compound (in words) ([4]; in vitro): little, if any
effect on Butorphanol-induced feeding [5]: does not decreases
Fmut = mutational factor, Ki(mutant receptor)/Ki(wt κ receptor) [6]: 103
Ki [7]: 9.23 ± 1.39 nM
ED50 Ratio (limits), DSLET (δ) [8]: 1.4 (1.0-2.2)
Kb ([9]; GPI, agonist U-50488H, read-out: Ke): 0.041 nM
potency relative to nor-BNI, antagonism of U-50488H ([9]; GPI, agonist U-50488H, relative to nor-BNI): 5 fold
Selectivity Ratio κ/δ ([9]; δ agonist [D-Ala2, D-Leu5]enkephalin, κ agonist U-50488H): 2797
Selectivity Ratio κ/μ ([9]; μ agonist morphine, κ agonist U-50488H): 728
Ki ([10]; [3H]diprenorphine competition, COS-7 whole cell binding, read-out: Ki ± SEM, κ[E297K]): 12.9 ± 0.48 nM
Fmut = mutational factor, Ki(mutant receptor)/Ki(wt κ receptor) ([10]; κ[E297K]): 143
effect on U50,488-induced feeding [11]: decreases
Ki ([12]; [3H]diprenorphine competition, COS-7 whole cell binding, read-out: Ki ± SEM, wt κ): 0.09 ± 0.01 nM
Fana = Ki(analog)/Ki(nor-BNI on the wt κ receptor) ([12]; wt κ): 0.75
potency relative to nor-BNI, SC-administered ([13]; SC, relative to nor-BNI): greater than 50 times
ED50 Ratio (limits), U-50488H antinociception ([13]; antagonist SC 0.05 μmol kg−1, U-50488H SC): 3.0 (1.9-5.0)
ED50 Ratio (limits), U-50488H antinociception ([13]; antagonist SC 2.0 μmol kg−1, U-50488H SC): 3.8 (2.5-6.3)
ED50 Ratio (limits), Morphine (μ) [14]: 0.8 (0.5-1.2)
Ki ([15]; [3H]diprenorphine competition, COS-7 whole cell binding, read-out: Ki ± SEM, μ[K303E]): 0.06 ± 0.02 nM
Fmut = mutational factor, Ki(mutant receptor)/Ki(wt κ receptor) ([15]; μ[K303E]): 0.67
effect on DAMGO-induced feeding [16]: decreases
effect on 24-hour deprivation-induced feeding [17]: decreases
in vivo kappa selectivity (in words) ([18]; in vivo studies, Tables 2 and 3): selective κ-antagonist
ED50 Ratio (limits), U-50488H (κ) ([18]; mouse tail flick, antagonist ICV 50 pmol, agonist U-50488H): 4.5 (3.4-6.3)
